# Assays:
# Rattus norvegicus [1] = test: Sedative activity in Long-Evans hooded rat assessed as vertical movements at 0.1 mg/kg, ip by spontaneous locomotor activity test; format: organism-based; parameters: dose 0.1 mg/kg, route intraperitoneal; conditions: in vivo
# Rattus norvegicus [2] = test: Anxiolytic activity in Long-Evans hooded rat assessed as open arm time at 3 mg/kg, ip by elevated plus maze test; format: functional; conditions: route intraperitoneal
# Rattus norvegicus [3] = test: Sedative activity in Long-Evans hooded rat assessed as vertical movements at 3 mg/kg, ip by spontaneous locomotor activity test; format: organism-based; parameters: dose 3 mg/kg, route intraperitoneal; conditions: in vivo
# Rattus norvegicus [4] = test: Sedative activity in Long-Evans hooded rat assessed as vertical movements at 0.03 mg/kg, ip by spontaneous locomotor activity test; format: organism-based; parameters: dose 0.03 mg/kg, route intraperitoneal; conditions: in vivo
# Rattus norvegicus [5] = test: Sedative activity in Long-Evans hooded rat assessed as vertical movements at 10 mg/kg, ip by spontaneous locomotor activity test; format: organism-based; parameters: dose 10 mg/kg, route intraperitoneal; conditions: in vivo
# Rattus norvegicus [6] = test: Sedative activity in Long-Evans hooded rat assessed as vertical movements at 1 mg/kg, ip by spontaneous locomotor activity test; format: organism-based; parameters: dose 1 mg/kg, route intraperitoneal; conditions: in vivo
# Rattus norvegicus [7] = test: Anxiolytic activity in Long-Evans hooded rat assessed as open arm time at 1 mg/kg, ip by elevated plus maze test; format: functional; conditions: route intraperitoneal
# Rattus norvegicus [8] = test: Anxiolytic activity in Long-Evans hooded rat assessed as open arm time at 0.3 mg/kg, ip by elevated plus maze test; format: functional; conditions: route intraperitoneal
# Rattus norvegicus [9] = test: Anxiolytic activity in Long-Evans hooded rat assessed as open arm time at 0.03 mg/kg, ip by elevated plus maze test; format: functional; conditions: route intraperitoneal
# Rattus norvegicus [10] = test: Sedative activity in Long-Evans hooded rat assessed as vertical movements at 0.3 mg/kg, ip by spontaneous locomotor activity test; format: organism-based; parameters: dose 0.3 mg/kg, route intraperitoneal; conditions: in vivo
# Rattus norvegicus [11] = test: Anxiolytic activity in Long-Evans hooded rat assessed as open arm time at 0.1 mg/kg, ip by elevated plus maze test; format: functional; conditions: route intraperitoneal
# Rattus norvegicus [12] = test: Anxiolytic activity in Long-Evans hooded rat assessed as open arm time at 0.5 mg/kg, ip by elevated plus maze test; format: functional; conditions: route intraperitoneal
# Rattus norvegicus [13] = test: Sedative activity in Long-Evans hooded rat assessed as vertical movements at 0.5 mg/kg, ip by spontaneous locomotor activity test; format: organism-based; parameters: dose 0.5 mg/kg, route intraperitoneal; conditions: in vivo
SMILES,Activity (Rattus norvegicus [1]) [%],Activity (Rattus norvegicus [2]) [%],Activity (Rattus norvegicus [3]) [%],Activity (Rattus norvegicus [4]) [%],Activity (Rattus norvegicus [5]) [%],Activity (Rattus norvegicus [6]) [%],Activity (Rattus norvegicus [7]) [%],Activity (Rattus norvegicus [8]) [%],Activity (Rattus norvegicus [9]) [%],Activity (Rattus norvegicus [10]) [%],Activity (Rattus norvegicus [11]) [%],Activity (Rattus norvegicus [12]) [%],Activity (Rattus norvegicus [13]) [%]
CCCCN(Cc1ccccc1)C[C@H](O)CN1CN(c2ccc(F)cc2)C2(CCN(CC3CCCCCCC3)CC2)C1=O,11.4,24,2.2,-0.4,-6.2,7.6,57.8,54.4,5.9,16,72.5,,
O=C1Nc2ccc(Cl)cc2C(c2ccccc2Cl)=NC1O (stereo not drawn) [LORAZEPAM],,,,,,,,,,,,222.4,-72

# Reference: ChEMBL document CHEMBL3393026, “A selective small molecule NOP (ORL-1 receptor) partial agonist for the treatment of anxiety” (Bioorg Med Chem Lett, 2015)
